In ChEMBL document CHEMBL1828585, “Reverse fosmidomycin derivatives against the antimalarial drug target IspC (Dxr)” (J Med Chem, 2011):
Calls of active or inactive are those of the source. The calls are words filed in the database; no cut-off is given here.

Assays:
[1] = Inhibition of Plasmodium falciparum IspC
[2] = Inhibition of Escherichia coli IspC
MRC5 = experiment: Cytotoxicity against human MRC5 cells; assay type: cell-based
Plasmodium falciparum = experiment: Antimicrobial activity against chloroquine-resistant Plasmodium falciparum K1 infected in human erythrocytes assessed as inhibition of parasite replication; assay type: functional, organism-based
Plasmodium berghei [3] = experiment: Antimalarial activity against Plasmodium berghei ANKA infected in Swiss mouse assessed as survival at 40 mg/kg, ip bid for 5 days coadministered with ritonavir 10 mg/kg, po
Plasmodium berghei [4] = experiment: Antimalarial activity against Plasmodium berghei ANKA infected in Swiss mouse assessed as suppression of infected RBC at 40 mg/kg, ip bid for 5 days coadministered with ritonavir 10 mg/kg, po; assay type: functional
Plasmodium berghei [5] = experiment: Antimalarial activity against Plasmodium berghei ANKA infected in Swiss mouse assessed as suppression of infected RBC at 10 mg/kg, ip qd for 5 days coadministered with ritonavir 10 mg/kg, po measured on day 4; assay type: functional
Plasmodium berghei [6] = experiment: Antimalarial activity against Plasmodium berghei ANKA infected in Swiss mouse assessed as survival at 10 mg/kg, ip qd for 5 days coadministered with ritonavir 10 mg/kg, po
[7] = Plasmodium falciparum, K1, read-out: IC50

Structure (SMILES) | IC50 ([1]; read-out: IC50) | IC50 ([2]; read-out: IC50) | IC50 (MRC5) | IC50 (Plasmodium falciparum; [7]) | Survival (Plasmodium berghei [3]) | Activity (Plasmodium berghei [4]) | Activity (Plasmodium berghei [5]) | Survival (Plasmodium berghei [6]) | IC50 [1] | IC50 [2] | IC50 (Plasmodium falciparum)
CCN(O)C(=O)CCC(c1ccccc1)P(=O)(O)O (centres undefined) | 15 nM | 15000 nM | > 64000 nM | 1300 nM |  |  |  |  |  |  | 
O=CN(O)CCCP(=O)(O)O [FOSMIDOMYCIN] | 140 nM | 220 nM | > 62000 nM | 3700 nM | Active | 92% |  |  |  |  | 
O=C(CCC(c1cccc2ccccc12)P(=O)(O)O)NO (centres undefined) | 37 nM | 7400 nM | > 64000 nM | 2400 nM |  |  |  |  |  |  | 
CN(O)C(=O)CCC(c1ccc(F)c(F)c1)P(=O)(O)O (centres undefined) | 3 nM |  | > 64000 nM | 290 nM | inactive | 78% |  |  |  |  | 
CCN(CC)CCCC(C)Nc1ccnc2cc(Cl)ccc12 (centres undefined) [CHLOROQUINE] |  |  |  |  |  |  | 98% | Active |  |  | 
CN(O)C(=O)CCC(c1ccc(Cl)c(Cl)c1)P(=O)(O)O (centres undefined) | 4 nM | 290 nM | > 64000 nM | 410 nM |  |  |  |  |  |  | 
O=C(CCC(c1ccc(F)c(F)c1)P(=O)(O)O)NO (centres undefined) | 3 nM | 210 nM | > 64000 nM | 380 nM | Active | 89% |  |  |  |  | 
CN(O)C(=O)CCC(c1cccc2ccccc12)P(=O)(O)O (centres undefined) | 9 nM | 3800 nM | > 62000 nM | 970 nM |  |  |  |  |  |  | 
CC(C)N(O)C(=O)CCC(c1ccccc1)P(=O)(O)O (centres undefined) |  |  | > 64000 nM |  |  |  |  |  | Not Active | Not Active | Not Active
